Measurements: patent US20050176672A1, “Use of cationic lipids to generate anti-tumor immunity” (Genzyme Corporation, priority 1999, published 2005)

Columns and labels:
[1] = test system: cytokine and cellular levels in the BALF; settings: complexes formed between DOTMA and pDNA; Friemark et al. 1998; cited from earlier work
cytokines in BALF = test: Cytokine levels in mouse BALF after intranasal instillation (ELISA); type: in vivo, BALB/c mice; settings: component instilled alone; BALF 24 h
From the text: Cytokine levels in the mouse BALF were quantitated using enzyme-linked immunosorbent assay (ELISA) kits as specified by the manufacturers. IFN-γ, TNF-α, IL1-α, IL-1β, IL-10 and IL-6 ELISA kits were from Genzyme Corporation, while mKC, MIP-2 and GM-CSF ELISA kits were from R&D Systems, and the Leukotriene B4 ELISA kit was from Perseptive Diagnostics.
The cationic lipid:pDNA complexes were formed by mixing equal volumes of GL67:DOPE (1:2) with pDNA as described previously (Lee et al., Hum. Gene Ther. 7: 1701-1717, (1996)) to a final concentration of 0.6:1.2:3.6 mM (GL-67:DOPE:pDNA) or 0.3:0.6:1.8 mM, as indicated in the figure legends. The DNA concentration is expressed in terms of nucleotides, using an average nucleotide molecular weight of 330 daltons. BALB/c mice were instilled intranasally with 100 μl of complex as described. See Scheule et al., Hum. Gene Ther. 8: 689-707 (1997). The animals were euthanized and their lungs were lavaged 24 h post-instillation using phosphate-buffered saline (PBS). The recovered BALF were centrifuged at 1,500 rpm for 4 min, and the resulting supernatants were removed and frozen at −80° C. for subsequent cytokine analysis. […]
To determine whether methylation of pDNA affected the inflammatory response in the lungs, we measured the levels of several different cytokines in the BALF 24 h after instillation. […]

M3 melanoma cells = test: M3 melanoma model; type: in vivo, mice; settings: lipid alone, equivalent amount; treated days 5, 10, 14, 18
Experimental: On day 0, mice were inoculated intraperitoneally with M3 melanoma cells. Following the inoculation of M3 tumor cells, the mice were treated on days […], 14, and 18 with either the GL67:pNull complex, which is cationic lipid GL67 complexed to a null vector (a vector without an expressible insert), or were left untreated (control). All untreated control animals died by day 40, while greater than 85% of the animals treated with the GL 67:pNull complex were alive on day 68.
On day 68, the surviving animals were rechallenged subcutaneously with M3 tumor cells. A naive group of animals was also challenged with these same cells in parallel. All the animals in the naive group died by day 105, while approximately 40% of the animals that had been originally treated with the GL 67:pNull complex survived not only the initial intraperitoneal tumor cells but also the secondary subcutaneous challenge.
Following the intraperitoneal inoculation on day 0 of M3 tumor cells, groups of mice were treated on days 5, 10, 14, and 18 with either GL 67:pNull complexes (lipid:pNull), an equivalent amount of GL 67 (lipid alone), an equivalent amount of pNull DNA (pNull vector alone), or were untreated.

BALB/c mouse lungs = test: Histopathological analysis of lung after intranasal instillation; type: in vivo, BALB/c mice; settings: component alone; scale from 0 to 4; 2 days post-instillation
From the text: The histopathological changes within BALB/c mouse lungs following administration of either cationic lipid alone, pDNA alone, or cationic lipid:pDNA complexes were also examined. BALB/c mice were instilled intranasally with GL-67:(m)pCF1-CAT, GL67:pCF1-CAT, GL-67 alone, (m)pCF1-CAT, pCF1-CAT, or water (vehicle control). Mice were sacrificed 2 days post-instillation and the lungs were processed for histological examination in a blinded manner. Histopathology.
Lungs were fixed by inflation at 30 cm of H2O pressure with 2% paraformaldehyde and 0.2% glutaraldehyde. Representative samples were taken from each lung lobe, embedded in glycol methacrylate, sectioned and stained with hematoxylin and eosin. Histopathology on the lung was evaluated in a blinded fashion and graded subjectively using a scale of 0 to 4, where a score of 0 indicates no abnormal findings and a score of 4 reflects severe changes with intense infiltrates. See Scheule et al., Hum. Gene Ther. 8: 689-707 (1997).
The extent of lung inflammation was graded using a scale from 0 to 4, with 0 indicating no abnormalities, 1 indicating a minimal change, 2 a mild change, 3 a moderate change, and 4 representing severe changes from a normal lung (FIG. 4).

For `CCCCCCCC/C=C\CCCCCCCCOCC(C[N+](C)(C)C)OCCCCCCCC/C=C\CCCCCCCC.[Cl-]` (stereo not shown) [DOTMA, N-[1-(2-3-dioleyloxy)propyl]-N,N,N-trimethylammonium chloride], the “cytokine and cellular levels in the BALF of treated animals” value [1] is listed as “enhanced”.

For `CC(C)CCC[C@@H](C)[C@H]1CC[C@H]2[C@@H]3CC=C4C[C@@H](OC(=O)N(CCCN)CCCCNCCCN)CC[C@]4(C)[C@H]3CC[C@]12C` [GL-67], the “levels of these four cytokine (TNF-α, IFN-γ, IL-6, KC) in BALF” value (cytokines in BALF) was “low levels”, the “mice surviving more than 50 days post tumor cell inoculation” value (M3 melanoma cells) was “about 35%” and the lung inflammation score (BALB/c mouse lungs) was “scored slightly lower than lungs that received lipid:pDNA complex”.
